Where a name gives a salt, the structure may show the parent alone.

Results on 14 compounds are retold here after US12521393B2, “Cytotoxicity targeting chimeras for CCR2-expressing cells” (GLAXOSMITHKLINE INTELLECTUAL PROPERTY DEVELOPMENT LIMITED, priority 2021, dated 2026).

This test concerns endogenous target monocytes in human PBMC. The test is described as follows: PBMC ex vivo monocyte depletion flow cytometry assay (Example 200). The format is cell-based. Particulars: with anti-cotinine antibody (SEQ ID NO: 11/12), 18-24 hours, EC50 in molar, read-out: Ex Vivo Depletion Assay pEC50 (converted). The procedure, abridged:
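Monocyte depletion is reported as pEC50, averaged or given individually across runs, and read by flow cytometry staining CD45, CD14 and CD4 with a viability dye. Compounds, diluted four-fold over 11 points from 1 mM DMSO stocks, were combined with 30 μg/mL Fc-enhanced anti-cotinine antibody and human PBMC, then incubated 18-24 h at 37° C.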
On the technique in general: A flow cytometer gives signals particle by particle.
In the case of `CC(C)N(C)[C@@H]1CC[C@H](N2CC[C@H](Nc3ncnc4ccc(C(F)(F)F)cc34)C2=O)[C@H](NC(=O)c2ccc(NCCOCCOCCOCCOCCNC(=O)[C@H]3CC(=O)N(C)[C@@H]3c3cccnc3)nc2)C1` [Example 128, N-((1R,2S,5R)-5-(Isopropyl(methyl)amino)-2-((S)-2-oxo-3-((6-(trifluoromethyl)quinazolin-4-yl)amino)pyrrolidin-1-yl)cyclohexyl)-6-((1-((2S,3S)-1-methyl-5-oxo-2-(pyridin-3-yl)pyrrolidin-3-yl)-1-oxo-5,8,11, 14-tetraoxa-2-azahexadecan-16-yl)amino) nicotinamide], the EC50 is 1.58 nM.

For the compound `CC(C)N(C)[C@@H]1CC[C@H](N2CC[C@H](Nc3ncnc4ccc(C(F)(F)F)cc34)C2=O)[C@H](NC(=O)c2cnn(C3CCN(CCOCCOCCOCCNC(=O)[C@H]4CC(=O)N(C)[C@@H]4c4cccnc4)CC3)c2)C1` [Example 129, N-((1R,2S,5R)-5-(Isopropyl(methyl)amino)-2-((S)-2-oxo-3-((6-(trifluoromethyl)quinazolin-4-yl)amino)pyrrolidin-1-yl)cyclohexyl)-1-(1-(1-((2S,3S)-1-methyl-5-oxo-2-(pyridin-3-yl)pyrrolidin-3-yl)-1-oxo-5,8,11-trioxa-2-azatridecan-13-yl)piperidin-4-yl)-1H-pyrazole-4-carboxamide], the EC50 is 1.26 nM.

With `CC(C)N(C)[C@@H]1CC[C@H](N2CC[C@H](Nc3ncnc4ccc(C(F)(F)F)cc34)C2=O)[C@H](NC(=O)C2CCC(N3CC(C(=O)NCCOCCOCCNC(=O)[C@H]4CC(=O)N(C)[C@@H]4c4cccnc4)C3)CC2)C1` (stereo partly drawn) [Example 131, (2S,3S)-N-(2-(2-(2-(1-(4-(((1R,2S,5R)-5-(Isopropyl(methyl)amino)-2-((S)-2-oxo-3-((6-(trifluoromethyl)quinazolin-4-yl)amino)pyrrolidin-1-yl)cyclohexyl)carbamoyl)cyclohexyl)azetidine-3-carboxamido)ethoxy)ethoxy)ethyl)-1-methyl-5-oxo-2-(pyridin-3-yl)pyrrolidine-3-carboxamide], the EC50 is 0.501 nM.

In the case of `CC(C)N(C)[C@@H]1CC[C@H](N2CC[C@H](Nc3ncnc4ccc(C(F)(F)F)cc34)C2=O)[C@H](NC(=O)[C@H]2CC[C@@H](N3CCC(C(=O)NCCOCCOCCNC(=O)[C@H]4CC(=O)N(C)[C@@H]4c4cccnc4)C(F)(F)C3)CC2)C1` (stereo partly drawn) [Example 132, 3,3-Difluoro-1-((1S,4s)-4-(((1R,2S,5R)-5-(isopropyl(methyl)amino)-2-((S)-2-oxo-3-((6-(trifluoromethyl)quinazolin-4-yl)amino)pyrrolidin-1-yl)cyclohexyl)carbamoyl)cyclohexyl)-N-(2-(2-(2-((2S,3S)-1-methyl-5-oxo-2-(pyridin-3-yl)pyrrolidine-3-carboxamido)ethoxy)ethoxy)ethyl)piperidine-4-carboxamide], the EC50 was 0.631 nM.

For `CC(C)N(C)[C@@H]1CC[C@H](N2CC[C@H](Nc3ncnc4ccc(C(F)(F)F)cc34)C2=O)[C@H](NC(=O)c2ccc([C@H]3CC[C@@H](C(=O)NCCOCCOCCNC(=O)[C@H]4CC(=O)N(C)[C@@H]4c4cccnc4)CC3)cc2)C1` [Example 133, (2S,3S)-N-(2-(2-(2-((1S,4s)-4-(4-(((1R,2S,5R)-5-(Isopropyl(methyl)amino)-2-((S)-2-oxo-3-((6-(trifluoromethyl)quinazolin-4-yl)amino)pyrrolidin-1-yl)cyclohexyl)carbamoyl)phenyl)cyclohexane-1-carboxamido)ethoxy)ethoxy)ethyl)-1-methyl-5-oxo-2-(pyridin-3-yl)pyrrolidine-3-carboxamide], the EC50 is 1.26 nM.

For the compound `CC(C)N(C)[C@@H]1CC[C@H](N2CC[C@H](Nc3ncnc4ccc(C(F)(F)F)cc34)C2=O)[C@H](NC(=O)[C@H]2CC[C@@H](N3CCC(C(=O)NCCOCCOCCNC(=O)[C@H]4CC(=O)N(C)[C@@H]4c4cccnc4)CC3)CC2)C1` [Example 134, 1-((1S,4s)-4-(((1R,2S,5R)-5-(Isopropyl(methyl)amino)-2-((S)-2-oxo-3-((6-(trifluoromethyl)quinazolin-4-yl)amino)pyrrolidin-1-yl)cyclohexyl)carbamoyl)cyclohexyl)-N-(2-(2-(2-((2S,3S)-1-methyl-5-oxo-2-(pyridin-3-yl)pyrrolidine-3-carboxamido)ethoxy)ethoxy)ethyl)piperidine-4-carboxamide, 3Formic acid salt], the EC50 was 0.126 nM.

For `CC(C)N(C)[C@@H]1CC[C@H](N2CC[C@H](Nc3ncnc4ccc(C(F)(F)F)cc34)C2=O)[C@H](NC(=O)[C@H]2CC[C@H](N3CCC(C(=O)NCCOCCOCCNC(=O)[C@H]4CC(=O)N(C)[C@@H]4c4cccnc4)CC3)CC2)C1` [Example 135, 1-((1R,4r)-4-(((1R,2S,5R)-5-(Isopropyl(methyl)amino)-2-((S)-2-oxo-3-((6-(trifluoromethyl)quinazolin-4-yl)amino)pyrrolidin-1-yl)cyclohexyl)carbamoyl)cyclohexyl)-N-(2-(2-(2-((2S,3S)-1-methyl-5-oxo-2-(pyridin-3-yl)pyrrolidine-3-carboxamido)ethoxy)ethoxy)ethyl)piperidine-4-carboxamide 3Formic acid salt], the EC50 is 1.58 nM.

Consider `CC(C)N(C)[C@@H]1CC[C@H](N2CC[C@H](Nc3ncnc4ccc(C(F)(F)F)cc34)C2=O)[C@H](NC(=O)[C@H]2CC[C@H](c3ccc(C(=O)NCCOCCOCCNC(=O)[C@H]4CC(=O)N(C)[C@@H]4c4cccnc4)cn3)CC2)C1` [Example 139, 6-((1R,4r)-4-(((1R,2S,5R)-5-(Isopropyl(methyl)amino)-2-((S)-2-oxo-3-((6-(trifluoromethyl)quinazolin-4-yl)amino)pyrrolidin-1-yl)cyclohexyl)carbamoyl)cyclohexyl)-N-(2-(2-(2-((2S,3S)-1-methyl-5-oxo-2-(pyridin-3-yl)pyrrolidine-3-carboxamido)ethoxy)ethoxy)ethyl)nicotinamide], for which the EC50 was 5.01 nM.

For the compound `CC(C)N(C)[C@@H]1CC[C@H](N2CC[C@H](Nc3ncnc4ccc(C(F)(F)F)cc34)C2=O)[C@H](NC(=O)[C@H]2CC[C@H](c3ccc(C(=O)NCCOCCOCCNC(=O)[C@H]4CC(=O)N(C)[C@@H]4c4cccnc4)nc3)CC2)C1` [Example 141, 5-((1R,4r)-4-(((1R,2S,5R)-5-(Isopropyl(methyl)amino)-2-((S)-2-oxo-3-((6-(trifluoromethyl)qinazolin-4-yl)amino)pyrrolidin-1-yl)cyclohexyl)carbamoyl)cyclohexyl)-N-(2-(2-(2-((2S,3S)-1-methyl-5-oxo-2-(pyridin-3-yl)pyrrolidine-3-carboxamido)ethoxy)ethoxy)ethyl)picolinamide], the EC50 is 6.31 nM.

In the case of `CC(C)N(C)[C@@H]1CC[C@H](N2CC[C@H](Nc3ncnc4ccc(C(F)(F)F)cc34)C2=O)[C@H](NC(=O)[C@H]2CC[C@@H](N3CCN(CCCCCCCCNC(=O)[C@H]4CC(=O)N(C)[C@@H]4c4cccnc4)CC3)CC2)C1` [Example 145, (2S,3S)-N-(8-(4-((1S,4s)-4-(((1R,2S,5R)-5-(Isopropyl(methyl)amino)-2-((S)-2-oxo-3-((6-(trifluoromethyl)quinazolin-4-yl)amino)pyrrolidin-1-yl)cyclohexyl)carbamoyl)cyclohexyl)piperazin-1-yl)octyl)-1-methyl-5-oxo-2-(pyridin-3-yl)pyrrolidine-3-carboxamide], the EC50 was 1.26 nM.

`CC(C)N(C)[C@@H]1CC[C@H](N2CC[C@H](Nc3ncnc4ccc(C(F)(F)F)cc34)C2=O)[C@H](NC(=O)COCCCCCCCCCOCCCCCCCNC(=O)[C@H]2CC(=O)N(C)[C@@H]2c2cccnc2)C1` [Example 153, (2S,3S)-N-(7-((9-(2-(((1R,2S,5R)-5-(Isopropyl(methyl)amino)-2-((S)-2-oxo-3-((6-(trifluoromethyl)quinazolin-4-yl)amino)pyrrolidin-1-yl)cyclohexyl)amino)-2-oxoethoxy)nonyl)oxy)heptyl)-1-methyl-5-oxo-2-(pyridin-3-yl)pyrrolidine-3-carboxamide]: the EC50 is 0.631 nM.

With `CC(C)N(C)[C@@H]1CC[C@H](N2CC[C@H](Nc3ncnc4ccc(C(F)(F)F)cc34)C2=O)[C@H](NC(=O)c2cnn(C3CCN(C(=O)CCCCCCCCCCNC(=O)[C@H]4CC(=O)N(C)[C@@H]4c4cccnc4)CC3)c2)C1` [Example 156, N-((1R,2S,5R)-5-(Isopropyl(methyl)amino)-2-((S)-2-oxo-3-((6-(trifluoromethyl)quinazolin-4-yl)amino)pyrrolidin-1-yl)cyclohexyl)-1-(1-(11-((2S,3S)-1-methyl-5-oxo-2-(pyridin-3-yl)pyrrolidine-3-carboxamido)undecanoyl)piperidin-4-yl)-1H-pyrazole-4-carboxamide], the EC50 was 0.794 nM.

For the compound `CC(C)N(C)[C@@H]1CC[C@H](N2CC[C@H](Nc3ncnc4ccc(C(F)(F)F)cc34)C2=O)[C@H](NC(=O)C2CC=C(c3ccc(OCCCCCCNC(=O)[C@H]4CC(=O)N(C)[C@@H]4c4cccnc4)cc3)CC2)C1` (stereo partly drawn) [Example 158, (2S,3S)-N-(6-((4′-(((1R,2S,5R)-5-(Isopropyl(methyl)amino)-2-((S)-2-oxo-3-((6-(trifluoromethyl)quinazolin-4-yl)amino)pyrrolidin-1-yl)cyclohexyl)carbamoyl)-2′,3′,4′,5′-tetrahydro-[1,1′-biphenyl]-4-yl)oxy)hexyl)-1-methyl-5-oxo-2-(pyridin-3-yl)pyrrolidine-3-carboxamide], the EC50 is 0.501 nM.

As to `CC(C)N(C)[C@@H]1CC[C@H](N2CC[C@H](Nc3ncnc4ccc(C(F)(F)F)cc34)C2=O)[C@H](NC(=O)c2ccnc(CCCOCCOCCOCCOCCNC(=O)[C@H]3CC(=O)N(C)[C@@H]3c3cccnc3)c2)C1` [Example 160, N-((1R,2S,5R)-5-(Isopropyl(methyl)amino)-2-((S)-2-oxo-3-((6-(trifluoromethyl)quinazolin-4-yl)amino)pyrrolidin-1-yl)cyclohexyl)-2-(1-((2S,3S)-1-methyl-5-oxo-2-(pyridin-3-yl)pyrrolidin-3-yl)-1-oxo-5,8,11,14-tetraoxa-2-azaheptadecan-17-yl)isonicotinamide, 3Formic acid salt], the EC50 was 31.6 nM.
